# Data from patent US4223039A, “Therapeutically useful N-phenylaniline derivatives” (priority 1978, dated 1980).
# Counter-ions that a name gives are not always drawn.
# Assays:
# [1] = Acute toxicity in mice after oral administration; settings: mouse, in vivo, suspended in 10% gum arabic, survivors checked at 15 days
# Experimental: The compounds have been administered at increasing doses (in geometric progression) to groups of five .female. SWISS, EOPS, NMRI/Han mice originating from the breeding of EVIC CEBA and of mean weight 25 g.
# For oral administration, they are suspended in a 10% gum arabic solution.
# The LD 50s are calculated by the method of Behrens (B) and Karber (C), (Arch. Exp. Path. Pharmakol. 1935, 177, 379-388).
# The number of animals surviving in the different groups is finally checked 15 days after administration of the compounds.
# [2] = test system: painful syndrome provoked in mice by phenylbenzoquinone; experiment: animal or person; assay type: in vivo; settings: for Therapeutic Index LD 50/ED 50 / therapeutic index (in words): mice; for Therapeutic Index LD 50/ED 50: LD 50 (oral)/ED 50 (phenylbenzoquinone test); for therapeutic index (in words): LD 50/ED 50
# Experimental: There is used the phenylbenzoquinone test according to a technique adapted from that of Siegmund (E), Proc. Soc. Exp. Biol. Med. 1957, 95, No. 4, 729-731.
# It is attempted to antagonise, by previous administration (30 minutes before) of the test compounds, the painful syndrome provoked in mice (groups of 10 animals) by interperitoneal injection of phenylbenzoquinone and characterised by intermittent contractions of the abdomen, periodic torsions of the trunk and extension of the rear paws. The number of symtoms is counted for 20 minutes after administration of the phenylbenzoquinone to the control and treated groups and the percentage protection relative to the control group calculated.
# For the most interesting compounds, studied at several doses chosen in geometric progression of ratio 2, the effective doses 50% (ED 50) which reduce by 50% the effects provoked by phenylbenzoquinone are determined. These ED 50s are sorted according to their limits of confidence calculated for a probability p=0.05 according to the method of Litchfield (J. T.) and Wilcoxon (F. A.), J. Pharmacol. Exp. Ther. 1949, 96, 99-113.
# Calculation of the therapeutic index (LD 50/ED 50) enables appreciation of the interest of the compounds.
# [3] = Solubility in distilled water; assay type: physicochemical
# [4] = Mus musculus, read-out: Percentage Protection
structure (smiles),measurement,setting,value
"CC(=O)Oc1ccccc1C(=O)O [Aspirin, reference compound]",LD50 at 360 h,[1],1500 mg/kg
same,ED50,[2]; Mus musculus,60 mg/kg
same,inhibition in vivo at 9.4 mg/kg,[2]; [4],4%
same,inhibition in vivo at 18.75 mg/kg,[2]; [4],20%
same,inhibition in vivo at 37.5 mg/kg,[2]; [4],31%
same,inhibition in vivo at 75 mg/kg,[2]; [4],56%
same,inhibition in vivo at 150 mg/kg,[2]; [4],82%
same,inhibition in vivo at 300 mg/kg,[2]; [4],95%
same,Therapeutic Index LD 50/ED 50,[2],25
"CC(Nc1cccc(C(=O)c2ccccc2)c1)C(=O)O (centres unmarked) [LJ 843, The lysine salt of N-(3-benzoylphenyl)alanine monohydrate]",LD50 at 360 h,[1],3750 mg/kg
same,solubility in distilled water,[3],very soluble in distilled water
same,ED50,[2]; Mus musculus,25 mg/kg
same,inhibition in vivo at 11.75 mg/kg,[2]; [4],30%
same,inhibition in vivo at 23.5 mg/kg,[2]; [4],38%
same,inhibition in vivo at 47 mg/kg,[2]; [4],66%
same,inhibition in vivo at 93.75 mg/kg,[2]; [4],84%
same,inhibition in vivo at 187.5 mg/kg,[2]; [4],91%
same,Therapeutic Index LD 50/ED 50,[2],150
same,therapeutic index (in words),[2],very favourable therapeutic index
CC(Nc1cccc(C(=O)c2ccc(Cl)cc2)c1)C(=O)O (centres unmarked) [LJ 845],LD50 at 360 h,[1],1750 mg/kg
same,inhibition in vivo at 87.5 mg/kg,[2]; [4],75%
"Cc1c(NCC(=O)O)cccc1C(=O)c1ccc(Cl)cc1 [LJ 846, N-[3-(4-Chlorobenzoyl)-2-methyl-phenyl]glycine]",LD50 at 360 h,[1],1600 mg/kg
same,ED50,[2]; Mus musculus,18 mg/kg
same,inhibition in vivo at 5 mg/kg,[2]; [4],6%
same,inhibition in vivo at 10 mg/kg,[2]; [4],40%
same,inhibition in vivo at 20 mg/kg,[2]; [4],48%
same,inhibition in vivo at 40 mg/kg,[2]; [4],75%
same,inhibition in vivo at 80 mg/kg,[2]; [4],90%
same,Therapeutic Index LD 50/ED 50,[2],89
same,therapeutic index (in words),[2],very favourable therapeutic index
O=C(O)CNc1cccc(C(=O)c2ccccc2)c1 [LJ 850],LD50 at 360 h,[1],675 mg/kg
same,inhibition in vivo at 33.75 mg/kg,[2]; [4],28%
CC(Nc1ccc(C(=O)c2ccccc2)cc1)C(=O)O (centres unmarked) [LJ 854],LD50 at 360 h,[1],1880 mg/kg
same,ED50,[2]; Mus musculus,32 mg/kg
same,inhibition in vivo at 5.8 mg/kg,[2]; [4],6%
same,inhibition in vivo at 11.75 mg/kg,[2]; [4],11%
same,inhibition in vivo at 23.5 mg/kg,[2]; [4],25%
same,inhibition in vivo at 47 mg/kg,[2]; [4],84%
same,inhibition in vivo at 93.75 mg/kg,[2]; [4],90%
same,Therapeutic Index LD 50/ED 50,[2],58
CC(Nc1ccccc1C(=O)c1ccccc1)C(=O)O (centres unmarked) [LJ 855],LD50 at 360 h,[1],1000 mg/kg
same,ED50,[2]; Mus musculus,16 mg/kg
same,inhibition in vivo at 3.1 mg/kg,[2]; [4],10%
same,inhibition in vivo at 6.25 mg/kg,[2]; [4],14%
same,inhibition in vivo at 12.5 mg/kg,[2]; [4],37%
same,inhibition in vivo at 25 mg/kg,[2]; [4],73%
same,inhibition in vivo at 50 mg/kg,[2]; [4],92%
same,Therapeutic Index LD 50/ED 50,[2],62
Cc1c(NC(C)C(=O)O)cccc1C(=O)c1ccc(Cl)cc1 (centres unmarked) [LJ 857],LD50 at 360 h,[1],1250 mg/kg
same,inhibition in vivo at 62.5 mg/kg,[2]; [4],64%
CC(Nc1ccc(C(=O)c2cccs2)cc1)C(=O)O (centres unmarked) [LJ 858],LD50 at 360 h,[1],1880 mg/kg
same,inhibition in vivo at 93.75 mg/kg,[2]; [4],78%
CC(Nc1cccc(C(=O)c2cccs2)c1)C(=O)O (centres unmarked) [LJ 859],LD50 at 360 h,[1],2500 mg/kg
same,inhibition in vivo at 125 mg/kg,[2]; [4],77%
Cc1c(NCC(=O)O)cccc1C(=O)c1ccccc1 [LJ 861],LD50 at 360 h,[1],1300 mg/kg
same,ED50,[2]; Mus musculus,65 mg/kg
same,inhibition in vivo at 20 mg/kg,[2]; [4],24%
same,inhibition in vivo at 40 mg/kg,[2]; [4],36%
same,inhibition in vivo at 80 mg/kg,[2]; [4],52%
same,inhibition in vivo at 160 mg/kg,[2]; [4],90%
same,inhibition in vivo at 320 mg/kg,[2]; [4],96%
same,Therapeutic Index LD 50/ED 50,[2],20
"CN(CC(=O)O)c1cccc(C(=O)c2ccccc2)c1 [LJ 862, N-(3-Benzoylphenyl)-N-methyl-glycine]",ED50,[2]; Mus musculus,85 mg/kg
same,inhibition in vivo at 20 mg/kg,[2]; [4],6%
same,inhibition in vivo at 40 mg/kg,[2]; [4],24%
same,inhibition in vivo at 80 mg/kg,[2]; [4],49%
same,inhibition in vivo at 160 mg/kg,[2]; [4],78%
same,inhibition in vivo at 320 mg/kg,[2]; [4],89%
"C[C@@H](C(=O)O)N(C(=O)c1ccc(Cl)cc1)c1cccc(C(=O)c2ccccc2)c1 [LJ 863, N-(3-Benzoylphenyl)-N-(4-chlorobenzoyl)-alanine]",inhibition in vivo at 320 mg/kg,[2]; [4],45%
O=C(c1ccccc1)c1cccc(NC(C(=O)O)c2ccccc2)c1 (centres unmarked) [LJ 864],inhibition in vivo at 40 mg/kg,[2]; [4],7%
same,inhibition in vivo at 80 mg/kg,[2]; [4],22%
same,inhibition in vivo at 160 mg/kg,[2]; [4],31%
same,inhibition in vivo at 320 mg/kg,[2]; [4],59%
Cc1ccc(C(=O)c2cccc(NC(C)C(=O)O)c2)cc1 (centres unmarked) [LJ 867],LD50 at 360 h,[1],2620 mg/kg
same,ED50,[2]; Mus musculus,32 mg/kg
same,inhibition in vivo at 8.2 mg/kg,[2]; [4],6%
same,inhibition in vivo at 16.4 mg/kg,[2]; [4],32%
same,inhibition in vivo at 32.75 mg/kg,[2]; [4],52%
same,inhibition in vivo at 65.5 mg/kg,[2]; [4],70%
same,inhibition in vivo at 131 mg/kg,[2]; [4],92%
same,inhibition in vivo at 262 mg/kg,[2]; [4],97%
same,Therapeutic Index LD 50/ED 50,[2],82
same,therapeutic index (in words),[2],very favourable therapeutic index
CC(Nc1ccc(Cl)c(C(=O)c2ccccc2)c1)C(=O)O (centres unmarked) [LJ 868],LD50 at 360 h,[1],1800 mg/kg
same,ED50,[2]; Mus musculus,> 180 mg/kg
same,inhibition in vivo at 180 mg/kg,[2]; [4],32%
same,Therapeutic Index LD 50/ED 50,[2],< 10
Cc1ccc(C(=O)c2ccccc2)cc1NC(C)C(=O)O (centres unmarked) [LJ 869],LD50 at 360 h,[1],1300 mg/kg
same,ED50,[2]; Mus musculus,28 mg/kg
same,inhibition in vivo at 8.1 mg/kg,[2]; [4],12%
same,inhibition in vivo at 16.25 mg/kg,[2]; [4],36%
same,inhibition in vivo at 32.5 mg/kg,[2]; [4],51%
same,inhibition in vivo at 65 mg/kg,[2]; [4],82%
same,inhibition in vivo at 130 mg/kg,[2]; [4],96%
same,Therapeutic Index LD 50/ED 50,[2],46
Cc1ccc(C(=O)c2ccccc2)cc1NCC(=O)O [LJ 871],ED50,[2]; Mus musculus,120 mg/kg
same,inhibition in vivo at 20 mg/kg,[2]; [4],3%
same,inhibition in vivo at 40 mg/kg,[2]; [4],22%
same,inhibition in vivo at 80 mg/kg,[2]; [4],34%
same,inhibition in vivo at 160 mg/kg,[2]; [4],59%
same,inhibition in vivo at 320 mg/kg,[2]; [4],60%
"C[C@H](Nc1cccc(C(=O)c2ccccc2)c1)C(=O)O [LJ 874, N-(3-Benzoylphenyl)-alanine]",LD50 at 360 h,[1],2500 mg/kg
same,ED50,[2]; Mus musculus,35 mg/kg
same,inhibition in vivo at 7.5 mg/kg,[2]; [4],3%
same,inhibition in vivo at 15 mg/kg,[2]; [4],20%
same,inhibition in vivo at 30 mg/kg,[2]; [4],48%
same,inhibition in vivo at 60 mg/kg,[2]; [4],61%
same,inhibition in vivo at 120 mg/kg,[2]; [4],92%
same,Therapeutic Index LD 50/ED 50,[2],71
same,therapeutic index (in words),[2],very favourable therapeutic index
